Measurements: PubChem BioAssay (NCI)
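48-hour exposure; five concentrations; linearly interpolated endpoints. The concentration for full growth arrest is given as TGI.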

Legend:
Assay in all cases: NCI-60 cell line screen, 48 h
SK-MEL-2 melanoma = tested on: SK-MEL-2 melanoma
OVCAR-4 ovarian = tested on: OVCAR-4 ovarian
OVCAR-3 ovarian = tested on: OVCAR-3 ovarian
MDA-N = tested on: MDA-N
RPMI-8226 leukemia = tested on: RPMI-8226 leukemia
HOP-92 NSCLC = tested on: HOP-92 NSCLC
SK-MEL-28 melanoma = tested on: SK-MEL-28 melanoma
DU-145 prostate = tested on: DU-145 prostate
HS 578T breast = tested on: HS 578T breast
K-562 leukemia = tested on: K-562 leukemia
MALME-3M melanoma = tested on: MALME-3M melanoma
HL-60(TB) leukemia = tested on: HL-60(TB) leukemia
MOLT-4 leukemia = tested on: MOLT-4 leukemia
NCI/ADR-RES ovarian = tested on: NCI/ADR-RES ovarian

SMILES | TGI (SK-MEL-2 melanoma) [µM] | TGI (OVCAR-4 ovarian) [µM] | TGI (OVCAR-3 ovarian) [µM] | TGI (MDA-N) [µM] | TGI (RPMI-8226 leukemia) [µM] | TGI (HOP-92 NSCLC) [µM] | TGI (SK-MEL-28 melanoma) [µM] | TGI (DU-145 prostate) [µM] | TGI (HS 578T breast) [µM] | TGI (K-562 leukemia) [µM] | TGI (MALME-3M melanoma) [µM] | TGI (HL-60(TB) leukemia) [µM] | TGI (MOLT-4 leukemia) [µM] | TGI (NCI/ADR-RES ovarian) [µM]
COC(=O)c1cc(C)ccc1/C=C1\Cc2cc(C)c(C)cc2C1=O | > 100 | > 100 | > 100 | > 100 | > 100 | > 100 | > 100 | > 100 | > 100 | > 100 | > 100 | > 100 | > 100 | –
CN(C)CCOc1cc2c(c3ccccc13)-c1ccccc1C2=O | 3.44 | 2.68 | 4.99 | – | 4.27 | 4.25 | 3.27 | – | – | 4.7 | 5.15 | 2.7 | 3.92 | 2.64
CCCSc1cc(Cl)c(C)cc1S(=O)(=O)n1cc[nH]c1=O | > 100 | > 100 | > 100 | > 100 | – | – | > 100 | > 100 | > 100 | > 100 | > 100 | – | > 100 | > 100
CCCCCCCCCCCCCCCCOP(=O)(O)OP(=O)(O)OCC1OC(n2ccc(N)nc2=O)CC1O (stereo unspecified) | > 100 | > 100 | > 100 | > 100 | > 100 | > 100 | > 100 | – | > 100 | > 100 | > 100 | > 100 | > 100 | > 100
CCOC(=O)C1C(=O)CC(C)(O)C(C(=O)OCC)C1c1ccc(N(C)C)cc1 (stereo unspecified) | > 100 | > 100 | > 100 | – | – | > 100 | > 100 | > 100 | – | > 100 | > 100 | > 100 | > 100 | > 100
COc1ccccc1C1C2=C(COC2=O)OC(C)(C)Oc2cc3c(cc21)OCO3 (stereo unspecified) | > 73.7 | > 100 | 13.3 | – | > 60.7 | > 61.5 | 72.1 | > 100 | > 100 | 12.8 | > 100 | 7.8 | > 100 | > 30.8
CN(C(=O)OC(C)(C)C)[C@H]1CCCC[C@H]1N1CCCC1 | > 100 | > 100 | > 100 | – | > 100 | – | > 100 | > 100 | > 100 | > 100 | > 100 | > 100 | > 100 | > 100
CS(=O)(=O)c1nc(N)nc2nc[nH]c12 | > 100 | > 100 | > 100 | – | > 100 | > 100 | > 100 | – | – | > 100 | – | > 100 | > 100 | –
CCSC(=Nc1ccccc1)SC | > 100 | > 100 | > 100 | – | > 100 | > 100 | > 100 | – | – | > 100 | > 100 | > 100 | > 100 | –
O=[N+]([O-])C(/C(Cl)=C(/Cl)N1CCCCC1)=C1\NCCO1 | > 100 | > 100 | > 100 | > 100 | > 100 | – | > 100 | > 100 | > 100 | – | > 100 | – | > 100 | > 100
N#CN=Nc1cc(Cl)c(N=NC#N)cc1Cl | > 100 | > 100 | > 100 | – | – | > 100 | > 100 | – | – | > 100 | > 100 | > 100 | > 100 | –
CC1=CC(C)C(C)N(CCNC(=O)Nc2ccccc2)c2ccccc21 (stereo unspecified) | 56.2 | > 100 | 51.2 | > 100 | 51.8 | – | > 100 | > 100 | 30.3 | > 100 | 70.2 | – | 64.4 | 67.9
CCOC(=O)c1sc2nc(SC)nc(Nc3ccc4c(c3)OCCCO4)c2c1N | > 100 | > 100 | 75.9 | > 100 | > 100 | > 100 | > 100 | > 100 | – | > 100 | 80.7 | > 100 | 8.25 | > 100
CCCCOC(=O)CN1C(=O)c2ccccc2C1=O | > 100 | > 100 | > 100 | – | – | > 100 | > 100 | – | – | – | > 100 | > 100 | > 100 | –
Cc1c(O)c(OC2OC(CO)C(O)C(O)C2O)cc2c1CC[C@@H]1C2(C)C(=O)C[C@]2(C)[C@@H]([C@@](C)(O)C(O)/C=C/C(C)(C)O)[C@H](O)C[C@@]12C (stereo partly specified) | > 100 | > 100 | > 100 | > 100 | – | > 100 | > 100 | > 100 | – | > 100 | > 100 | > 100 | > 100 | > 100
CCOC(=O)c1ccc2c(c1)nc1n2C(c2c(F)cccc2F)SC1 (stereo unspecified) | 38.4 | > 100 | 43.4 | – | > 100 | > 100 | > 100 | > 100 | > 100 | > 100 | – | > 100 | > 100 | 44.9
C#CCCCC(=C)C[C@H](OCc1ccccc1)[C@H]1OC(=O)[C@@H]1C | > 100 | > 100 | > 100 | > 100 | 83.7 | > 100 | > 100 | – | – | – | – | > 100 | – | > 100
Cc1ccc(S(=O)(=O)Nn2c(-c3ccccc3)c(C#N)c(-c3ccc(Cl)cc3)c(C#N)c2=O)cc1 | 52.4 | > 100 | – | > 100 | 37.4 | 79.7 | 78.5 | – | – | > 100 | – | 31.7 | 52.8 | –
COc1ccc(-c2oc3c(CC(=O)O)cccc3c(=O)c2OC)cc1 | > 100 | – | > 100 | > 100 | – | – | – | > 100 | > 100 | > 100 | > 100 | > 100 | > 100 | > 100
COC(=O)[C@H](CCSC)NC(=O)c1ccc(CNC(=O)/C=C/c2cccc(Oc3ccccc3)c2)cc1 | 32.8 | > 90.6 | > 93.6 | – | > 100 | 28.1 | 34.2 | > 100 | > 100 | > 78.8 | 37.8 | – | 33.4 | > 100
CC(N)Cc1cccc(C(F)(F)F)c1 (stereo unspecified) | > 100 | > 100 | > 100 | – | > 100 | > 100 | > 100 | – | – | > 100 | > 100 | > 100 | – | –
CCOC(=O)CSc1nc(-c2ccc(OC)cc2)c(C#N)c(=O)[nH]1 | > 100 | > 100 | > 100 | – | > 100 | > 100 | > 100 | > 100 | > 100 | > 100 | – | > 100 | > 100 | > 100
O=C1CN(c2cccc(C(F)(F)F)c2)C(=O)CN1NCNN1CC(=O)N(c2cccc(C(F)(F)F)c2)CC1=O | – | – | – | > 100 | > 100 | – | > 100 | – | > 100 | > 100 | – | > 100 | > 100 | > 100
COc1cc(CC2CCc3nc(N)nc(N)c3C2)cc(OC)c1OC (stereo unspecified) | > 56.6 | > 100 | > 100 | – | > 68.4 | > 100 | > 100 | – | > 100 | > 100 | 28.4 | – | > 100 | –
C1COC2SC3=C(SC(=C4SC5=C(SCCS5)S4)S3)SC2O1 (stereo unspecified) | > 100 | > 100 | > 100 | – | – | > 100 | > 100 | > 100 | > 100 | > 100 | > 100 | > 100 | > 100 | > 100
CC12CN(CC[N+](C)(C)C)CC1(C)C1CCC2O1 (stereo unspecified) | > 100 | > 100 | > 100 | – | > 100 | > 100 | > 100 | > 100 | > 100 | > 100 | > 100 | – | > 100 | > 100
NC(=O)/N=C(\N)NC(=O)c1ccccc1 | > 100 | – | > 100 | > 100 | – | > 100 | > 100 | > 100 | – | > 100 | > 100 | > 100 | > 100 | > 100
Cc1nc(Nc2nnc(-c3cc([N+](=O)[O-])cc([N+](=O)[O-])c3C)o2)sc1C(=O)CC(=O)Cc1nc2ccc(Cl)cc2[nH]c1=O | > 100 | > 100 | – | – | > 100 | > 100 | > 100 | – | – | > 100 | – | > 100 | > 100 | –
C[C@]12CCC3c4ccc(OC(=O)c5ccccc5)cc4CC[C@H]3C1CC[C@@H]2OC(=O)C12OC1CCC2=O (stereo partly specified) | 16 | 10.6 | 8.82 | – | 14.8 | 35.6 | 10.7 | – | – | 5.06 | 13.3 | 4.56 | 5.78 | –
CC(=O)c1ccc(-c2oc(-c3ccccc3)cc2-c2ccc3c(c2)OCO3)s1 | – | – | > 100 | – | > 100 | > 100 | – | > 100 | > 100 | > 100 | – | 2.36 | > 100 | > 100
